PubChem BioAssay AID1919006 (Molecular Pharmacology Branch, DTP, NCI, 2023)

System: 885512-296-R-J2-PDC complex spheroid growth, % test/control
Assay: Anticancer human tumor 885512-296-R-J2-PDC patient-derived breast carcinoma cell line growth inhibition [AhR]
Conditions: for IC50: curve of first compound; for viability, T/C: stronger effect = lower value
Method in brief: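 Complex tumor spheroids co-cultured with HUVEC and human MSC stroma; AhR antagonists tested in combination with standard-of-care and investigational agents. Top concentration at or near clinical Cmax (else 10 microM), half-log dilutions; growth expressed as percent test/control.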

[1] = second compound 0.1 µM, first compound 0.0316 µM
[2] = second compound 0.1 µM, first compound 0.1 µM
[3] = second compound 0.316 µM, first compound 0.0316 µM
[4] = second compound 0.316 µM, first compound 0.1 µM
[5] = second compound 1 µM, first compound 0.0316 µM
[6] = second compound 1 µM, first compound 0.1 µM
[7] = second compound 3.16 µM, first compound 0.0316 µM
[8] = second compound 3.16 µM, first compound 0.1 µM
[9] = second compound 10 µM, first compound 0.0316 µM
[10] = second compound 10 µM, first compound 0.1 µM
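Note: spheroids exposed to compounds for seven days.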

CC[C@@]1(O)C(=O)OCc2c1cc1n(c2=O)Cc2cc3c(CN(C)C)c(O)ccc3nc2-1 + Cc1ccccc1N=Nc1ccc(NC(=O)c2ccnn2C)c(C)c1
IC50 (second compound 0.1 µM): 5.02 nM
IC50 (second compound 0.316 µM): 5.48 nM
IC50 (second compound 1 µM): 5.01 nM
IC50 (second compound 3.16 µM): 4.59 nM
IC50 (second compound 10 µM): 2.08 nM
viability, T/C (second compound 0.1 µM, first compound 0.000316 µM): 109%
viability, T/C (second compound 0.1 µM, first compound 0.001 µM): 103%
viability, T/C (second compound 0.1 µM, first compound 0.00316 µM): 67.5%
viability, T/C (second compound 0.1 µM, first compound 0.01 µM): 23.7%
viability, T/C [1]: 8.84%
viability, T/C [2]: 6.78%
viability, T/C (second compound 0.316 µM, first compound 0.000316 µM): 113%
viability, T/C (second compound 0.316 µM, first compound 0.001 µM): 113%
viability, T/C (second compound 0.316 µM, first compound 0.00316 µM): 74.7%
viability, T/C (second compound 0.316 µM, first compound 0.01 µM): 23%
viability, T/C [3]: 8.71%
viability, T/C [4]: 7.03%
viability, T/C (second compound 1 µM, first compound 0.000316 µM): 117%
viability, T/C (second compound 1 µM, first compound 0.001 µM): 111%
viability, T/C (second compound 1 µM, first compound 0.00316 µM): 70.7%
viability, T/C (second compound 1 µM, first compound 0.01 µM): 18.9%
viability, T/C [5]: 8.48%
viability, T/C [6]: 8.35%
viability, T/C (second compound 3.16 µM, first compound 0.000316 µM): 107%
viability, T/C (second compound 3.16 µM, first compound 0.001 µM): 95.4%
viability, T/C (second compound 3.16 µM, first compound 0.00316 µM): 61.1%
viability, T/C (second compound 3.16 µM, first compound 0.01 µM): 26.5%
viability, T/C [7]: 9.81%
viability, T/C [8]: 7.76%
viability, T/C (second compound 10 µM, first compound 0.000316 µM): 54.6%
viability, T/C (second compound 10 µM, first compound 0.001 µM): 57.7%
viability, T/C (second compound 10 µM, first compound 0.00316 µM): 46.3%
viability, T/C (second compound 10 µM, first compound 0.01 µM): 21.4%
viability, T/C [9]: 9.21%
viability, T/C [10]: 7.45%

COc1cc(C2c3cc4c(cc3C(OC3OC5COC(C)OC5C(O)C3O)C3COC(=O)C23)OCO4)cc(OC)c1O (stereo not given) + Cc1ccccc1N=Nc1ccc(NC(=O)c2ccnn2C)c(C)c1
IC50 (second compound 0.1 µM): 404 nM
IC50 (second compound 0.316 µM): 415 nM
IC50 (second compound 1 µM): 423 nM
IC50 (second compound 3.16 µM): 290 nM
IC50 (second compound 10 µM): 186 nM
viability, T/C [1]: 101%
viability, T/C [2]: 115%
viability, T/C (second compound 0.1 µM, first compound 0.316 µM): 59.6%
viability, T/C (second compound 0.1 µM, first compound 1 µM): 19.2%
viability, T/C (second compound 0.1 µM, first compound 3.16 µM): 7.36%
viability, T/C (second compound 0.1 µM, first compound 10 µM): 7.36%
viability, T/C [3]: 120%
viability, T/C [4]: 107%
viability, T/C (second compound 0.316 µM, first compound 0.316 µM): 60.2%
viability, T/C (second compound 0.316 µM, first compound 1 µM): 17.9%
viability, T/C (second compound 0.316 µM, first compound 3.16 µM): 9.41%
viability, T/C (second compound 0.316 µM, first compound 10 µM): 9.17%
viability, T/C [5]: 96.2%
viability, T/C [6]: 102%
viability, T/C (second compound 1 µM, first compound 0.316 µM): 60.8%
viability, T/C (second compound 1 µM, first compound 1 µM): 17.3%
viability, T/C (second compound 1 µM, first compound 3.16 µM): 9.27%
viability, T/C (second compound 1 µM, first compound 10 µM): 8.44%
viability, T/C [7]: 81.4%
viability, T/C [8]: 71.5%
viability, T/C (second compound 3.16 µM, first compound 0.316 µM): 49.5%
viability, T/C (second compound 3.16 µM, first compound 1 µM): 15.3%
viability, T/C (second compound 3.16 µM, first compound 3.16 µM): 7.76%
viability, T/C (second compound 3.16 µM, first compound 10 µM): 7.73%
viability, T/C [9]: 57.4%
viability, T/C [10]: 63.5%
viability, T/C (second compound 10 µM, first compound 0.316 µM): 41.1%
viability, T/C (second compound 10 µM, first compound 1 µM): 13.5%
viability, T/C (second compound 10 µM, first compound 3.16 µM): 8.01%
viability, T/C (second compound 10 µM, first compound 10 µM): 7.22%
